ChEMBL document CHEMBL1687773 (Antimicrob Agents Chemother, 2010)

System: Human immunodeficiency virus 1
Assay: Antiviral activity against HIV1 NL4-3 harboring reverse transcriptase V108I, E138K, F227F/L mutant infected in human SupT1 cells derived from 11 viral passages with lersivirine assessed as inhibition of viral replication after 21 days relative to drug sensitive HIV1 NL4-3
Assay type: functional, SUP-T1

## CCc1nn(CCO)c(CC)c1Oc1cc(C#N)cc(C#N)c1 [LERSIVIRINE]
  fold change (FC): 143
